Laboratory results: patent US8282916B2, “Tumor therapy with replication competent sindbis viral vectors” (New York University, priority 2008, dated 2012)
“Also recorded” adds a separate entry of the source.

Test system: ES-2/Fluc ovarian cancer cells
Experiment: ES-2/Fluc ovarian cancer model in SCID mice: whole body bioluminescence after daily i.p. RD-Sindbis/tk and GCV
Format: in vivo
Excerpt: In the example below, SCID mice were intraperitoneally implanted with ES2 human ovarian cancer cells. In order to track and monitor disease progression, the ES2 cells were genetically engineered to express a firefly luciferase gene for bioluminescent imaging. Therefore, the bioluminescent signal intensity is proportional to the tumor load in these animals (FIG. 3B). Tumor-bearing mice were either mock treated or received daily treatments with a conventional RD-Sindbis/HSVtk vector.
An ES-2/Fluc ovarian cancer model was used to test if the HSVtk suicide gene enhanced the therapeutic effects of Sindbis vectors. […] SCID mice were inoculated with ES-2/Fluc on day 0. Daily GDEPT treatments involving i.p. injections of RD-Sindbis/tk and GCV (25 mg/Kg of body weight) were started on day 3. The Sindbis/tk −GCV group (n=5) received Sindbis/tk treatments but no GCV. The Sindbis/tk +GCV group (n=5) received both Sindbis/tk and GCV treatments. The Control group (n=5) was neither treated with Sindbis/tk nor GCV. The Control +GCV group (n=5) received no Sindbis/tk but was treated with GCV. Disease progression was monitored and the whole body photon counts were determined using the IVIS® system on days 1, 3, 6, 8, 12 and 14.

## Nc1nc(O)c2ncn(COC(CO)CO)c2n1 [GCV, ganciclovir]
GCV 25 mg/Kg daily i.p. together with daily i.p. RD-Sindbis/HSVtk from day 3
  effect of prodrug on tumor growth / tumor killing together with vector: significantly improved anti-tumor efficacy; also recorded: dramatically enhanced the Sindbis HSVtk vector treatments and suppressed tumor growth; also recorded: enhanced the killing of Sindbis/tk-infected ES-2/Fluc cells in vivo
GCV 25 mg/Kg daily i.p. without HSVtk expression (no Sindbis/tk)
  therapeutic effect on tumor loading: no therapeutic effect
